Test results taken from US10640536B2, “Polymyxins, compositions, methods of making and methods of use” (XELLIA PHARMACEUTICALS APS, priority 2013, dated 2020).
Values after ≈ are worked out from the molar mass of the structure shown. Read-outs that look alike come from different tables or passages of the source.

Key:
Assay type in all cases: cell-based
[1] = test system: Escherichia coli ATCC25922
Method: (§1) The deca sulfomethylated polymyxins were tested for antibacterial activity by determining the minimal inhibitory concentration (MIC) by use of the broth dilution method according to EUCAST. […] indicator organism were used e.g. Acinetobacter baumannii colistin-sensitive, Klebsiella pneumonia #3010, Pseudomonas aeruginosa ATCC27853, Escherichia coli ATCC25922 and Escherichia coli DSA443. The tests were performed at, Statens Serum Institut, Copenhagen, Denmark department for Microbiology and Infection Control.
(§2) The concentration range used was 0.125-128 μg/mL. Gentamicin was included as a positive quality control. Preparation of Gentamicin: 1000 μg/mL stock solution: 0.125 ml of a 40 mg/mL solution of Hexamicin+4.875 mL sterile water. 128 μg/mL: 0.640 mL of “1000 μg/mL stock solution”+4.36 mL Müeller-Hinton broth (MHB).
(§3) Preparation of compounds disclosed herein: 5 mg/ml stock solution: one vial of 5 mg was added 1.0 mL sterile water. 512 μg/mL solution: 0.205 mL of “5 mg/mL stock solution”+1.795 mL MHB
(§4) Preparation of inoculum: Fresh overnight colonies from 5% horse blood agar plates were suspended to a turbidity of 0.5 McFarland and further diluted in Müeller-Hinton broth to 1×10^6 CFU/ml. A total of 50 μL diluted bacterial suspension (Müeller Hinton BBL II-broth, SSI) was added to wells containing 50 μL of two fold compounds described herein or gentamicin dilutions. All compounds were tested in triplicate. The plates were incubated at 35° C., 16-20 h.

[2] = test system: Pseudomonas aeruginosa ATCC27853
Method: as §1, §2, §3, §4

[3] = test system: Acinetobacter baumannii colistin-sensitive
Method: as §1, §2, §3, §4

[4] = test system: Klebsiella pneumonia #3010
Method: as §1, §2, §3, §4

Escherichia coli DSA443 = test: MIC by broth dilution method according to EUCAST; conditions: Table 3, 35° C., 16-20 h
Method: as §1, §2, §3
as §4, with “All compounds were tested in triplicate. The plates were incubated at 35° C., 16-20 h.” left out

[5] = Table 3, broth dilution, 35° C., 16-20 h

CC[C@H](C)CCCCC(=O)N[C@@H](CCN(CS(=O)(=O)O)CS(=O)(=O)O)C(=O)N[C@H](C(=O)N[C@@H](CCN)C(=O)N[C@H]1CCNC(=O)[C@H]([C@@H](C)O)NC(=O)[C@H](CCN(CS(=O)(=O)O)CS(=O)(=O)O)NC(=O)[C@H](CCN(CS(=O)(=O)O)CS(=O)(=O)O)NC(=O)[C@H](CC(C)C)NC(=O)[C@@H](CC(C)C)NC(=O)[C@H](CCN(CS(=O)(=O)O)CS(=O)(=O)O)NC1=O)[C@@H](C)O [PE1-(SM)8^1,5,8, 9, Tetra (Nγ-Bis-Sulfomethyl) DAB1,5,8,9 Polymyxin E1]
MIC E. coli ATCC 25922 ([1]; ATCC25922): 8 µg/mL (≈ 4.16 µM) | MIC P. aeruginosa ATCC 27853 ([2]; ATCC27853): 8 µg/mL (≈ 4.16 µM)

CC[C@H](C)CCCCC(=O)N[C@@H](CCN(CS(=O)(=O)O)CS(=O)(=O)O)C(=O)N[C@H](C(=O)N[C@@H](CCN)C(=O)N[C@H]1CCNC(=O)[C@H]([C@@H](C)O)NC(=O)[C@H](CCN(CS(=O)(=O)O)CS(=O)(=O)O)NC(=O)[C@H](CCN)NC(=O)[C@H](CC(C)C)NC(=O)[C@@H](CC(C)C)NC(=O)[C@H](CCN(CS(=O)(=O)O)CS(=O)(=O)O)NC1=O)[C@@H](C)O [PE1-(SM)6^1,5, 9, Tri (Nγ-Bis-Sulfomethyl) DAB1,5,9 Polymyxin E1]
MIC E. coli ATCC 25922 ([1]; ATCC25922): 8 µg/mL (≈ 4.61 µM) | MIC P. aeruginosa ATCC 27853 ([2]; ATCC27853): 8 µg/mL (≈ 4.61 µM)

CC(C)CCCCC(=O)N[C@@H](CCN(CS(=O)(=O)O)CS(=O)(=O)O)C(=O)N[C@H](C(=O)N[C@@H](CCN(CS(=O)(=O)O)CS(=O)(=O)O)C(=O)N[C@H]1CCNC(=O)[C@H]([C@@H](C)O)NC(=O)[C@H](CCN(CS(=O)(=O)O)CS(=O)(=O)O)NC(=O)[C@H](CCN(CS(=O)(=O)O)CS(=O)(=O)O)NC(=O)[C@H](CC(C)C)NC(=O)[C@@H](CC(C)C)NC(=O)[C@H](CCN(CS(=O)(=O)O)CS(=O)(=O)O)NC1=O)[C@@H](C)O [Example 2, Penta (Nγ-Bis-Sulfomethyl) DAB1,3,5,8,9 Polymyxin E2]
MIC A. baumannii ColistinS ([3]; colistin-sensitive): 4 µg/mL (≈ 1.91 µM) | MIC E. coli ATCC 25922 ([1]; ATCC25922): 8 µg/mL (≈ 3.82 µM) | MIC K. pneumonia #3010 [4]: 16 µg/mL (≈ 7.63 µM) | MIC P. aeruginosa ATCC 27853 ([2]; ATCC27853): 8 µg/mL (≈ 3.82 µM)

CC[C@H](C)CCCCC(=O)N[C@@H](CCN(CS(=O)(=O)O)CS(=O)(=O)O)C(=O)N[C@H](C(=O)N[C@@H](CCN(CS(=O)(=O)O)CS(=O)(=O)O)C(=O)N[C@H]1CCNC(=O)[C@H]([C@@H](C)O)NC(=O)[C@H](CCN(CS(=O)(=O)O)CS(=O)(=O)O)NC(=O)[C@H](CCN(CS(=O)(=O)O)CS(=O)(=O)O)NC(=O)[C@H]([C@@H](C)CC)NC(=O)[C@@H](CC(C)C)NC(=O)[C@H](CCN(CS(=O)(=O)O)CS(=O)(=O)O)NC1=O)[C@@H](C)O [Example 3, Penta (Nγ-Bis-Sulfomethyl) DAB1,3,5,8,9 Polymyxin E1-i]
MIC A. baumannii ColistinS ([3]; colistin-sensitive): 4 µg/mL (≈ 1.9 µM) | MIC E. coli ATCC 25922 ([1]; ATCC25922): 8 µg/mL (≈ 3.79 µM) | MIC K. pneumonia #3010 [4]: 16 µg/mL (≈ 7.58 µM) | MIC P. aeruginosa ATCC 27853 ([2]; ATCC27853): 8 µg/mL (≈ 3.79 µM)

CC[C@H](C)CCCCC(=O)N[C@@H](CCN(CS(=O)(=O)O)CS(=O)(=O)O)C(=O)N[C@H](C(=O)N[C@@H](CCN(CS(=O)(=O)O)CS(=O)(=O)O)C(=O)N[C@H]1CCNC(=O)[C@H]([C@@H](C)O)NC(=O)[C@H](CCN(CS(=O)(=O)O)CS(=O)(=O)O)NC(=O)[C@H](CCN(CS(=O)(=O)O)CS(=O)(=O)O)NC(=O)[C@H](CC(C)C)NC(=O)[C@@H](CC(C)C)NC(=O)[C@H](CCN(CS(=O)(=O)O)CS(=O)(=O)O)NC1=O)[C@@H](C)O [Example 1, Penta (Nγ-Bis-Sulfomethyl) DAB1,3,5,8,9 Polymyxin E1]
MIC A. baumannii ColistinS ([3]; colistin-sensitive): 4 µg/mL (≈ 1.9 µM) | MIC E. coli ATCC 25922 ([1]; ATCC25922): 8 µg/mL (≈ 3.79 µM) | MIC K. pneumonia #3010 [4]: 16 µg/mL (≈ 7.58 µM) | MIC P. aeruginosa ATCC 27853 ([2]; ATCC27853): 8 µg/mL (≈ 3.79 µM)

Gentamicin [reference compound]
MIC E. coli DSA 443 (Escherichia coli DSA443): >32 µg/mL | MIC A. baumannii ColistinS [3, 5]: >32 µg/mL | MIC E. coli ATCC 25922 [1, 5]: 1 µg/mL | MIC of positive control against quality control limit ([1]; limit 0.25-1 μg/mL for E. coli ATCC 25922): within the limit | MIC K. pneumonia #3010 [4, 5]: 0.125 µg/mL | MIC P. aeruginosa ATCC 27853 [2, 5]: 1 µg/mL | MIC of positive control against quality control limit ([2]; limit 0.5-2 μg/mL for P. aeruginosa ATCC27853): within the limit
